The values that follow come from US6664229B2, “Methods for treatment using novel ligands of the neuropeptide receptor HFGAN72” (SmithKline Beecham p.l.c., priority 1997, dated 2003).

The test relates to rats. Put plainly: Cannula placement verification: dipsogenic response to icv angiotensin II. It counts as in vivo, rat. The conditions noted are these: 100 ng i.c.v., 5 minute period post-AII, average. On the procedure: An appropriate cannula placement is indicated by an intense dipsogenic response to 100 ng i.c.v. angiotensin II (AII). To induce a dipsogenic effect, access is required to the AII receptors located on circumventricular organs around the third ventricle. The time spent drinking for a 5 minute period post-AII is recorded. This tends to be an all-or-nothing effect, but rats spend on average 150 s drinking. […] This may be verified by injection of cresyl violet and sectioning of the brain.

Regarding “angiotensin II (DRVYIHPF; Angiotensin-2; UniProt P01019 25-32, looked up)”, the time spent drinking is listed as approximately 150 s.
